The IC50 is the midpoint of a concentration-inhibition curve. What is called Ki is a dissociation constant, usually derived from enzyme kinetics or from competition with a known ligand.

Here are results for 21 compounds from ChEMBL document CHEMBL1909046, “DrugMatrix in vitro pharmacology data”.

The target in experiment [1] is T1, Alpha-2C adrenergic receptor (Homo sapiens, UniProt P18825).
T1 sequence (P18825 whole entry): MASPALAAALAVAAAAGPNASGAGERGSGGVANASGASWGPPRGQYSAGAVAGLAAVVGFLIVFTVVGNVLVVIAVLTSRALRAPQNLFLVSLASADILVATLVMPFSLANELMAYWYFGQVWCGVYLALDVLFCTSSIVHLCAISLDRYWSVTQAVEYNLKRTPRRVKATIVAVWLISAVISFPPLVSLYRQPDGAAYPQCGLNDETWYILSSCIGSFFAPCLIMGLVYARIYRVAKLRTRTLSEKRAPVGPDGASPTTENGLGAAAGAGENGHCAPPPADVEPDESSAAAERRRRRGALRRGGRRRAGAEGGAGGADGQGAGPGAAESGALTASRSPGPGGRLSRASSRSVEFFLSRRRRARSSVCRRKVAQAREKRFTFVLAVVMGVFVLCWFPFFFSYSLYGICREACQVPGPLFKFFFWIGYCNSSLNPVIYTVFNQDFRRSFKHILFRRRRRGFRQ
Briefly: DRUGMATRIX: Adrenergic Alpha-2C radioligand binding (ligand: [3H] MK-912). In kind it is cell membranes, Sf9, Membrane.

The target in experiment [2] is T2, Muscarinic acetylcholine receptor M5 (Homo sapiens, UniProt P08912). Further: in other assays of this panel Not Active means under 50% inhibition at 10 µM.
T2 sequence (P08912 whole entry): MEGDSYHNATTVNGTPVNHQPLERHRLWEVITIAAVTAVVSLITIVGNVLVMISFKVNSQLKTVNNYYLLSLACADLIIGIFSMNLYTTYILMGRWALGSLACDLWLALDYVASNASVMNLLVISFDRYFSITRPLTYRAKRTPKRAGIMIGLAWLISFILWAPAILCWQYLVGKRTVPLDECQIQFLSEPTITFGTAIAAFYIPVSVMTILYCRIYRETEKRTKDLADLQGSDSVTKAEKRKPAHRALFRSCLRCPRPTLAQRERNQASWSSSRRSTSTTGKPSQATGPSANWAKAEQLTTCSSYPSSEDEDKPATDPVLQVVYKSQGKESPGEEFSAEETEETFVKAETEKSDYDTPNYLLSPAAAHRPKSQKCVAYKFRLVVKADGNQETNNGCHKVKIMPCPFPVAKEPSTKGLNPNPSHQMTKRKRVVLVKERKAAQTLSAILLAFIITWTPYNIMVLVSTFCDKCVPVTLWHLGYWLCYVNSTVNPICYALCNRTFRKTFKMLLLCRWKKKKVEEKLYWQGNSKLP
In kind it is cell membranes, CHO-K1, Membrane. To be noted: cho-k1.

For experiment [3], the target named is Platelet-activating factor receptor (Homo sapiens, UniProt P25105). In kind it is tissue-based. Further: in other assays of this panel Not Active means under 50% inhibition at 10 µM.
For experiment [4], the target named is Epidermal growth factor receptor (Homo sapiens, UniProt P00533). Description: DRUGMATRIX: Protein Tyrosine Kinase, EGF Receptor enzyme inhibition (substrate: Poly(Glu:Tyr)). In kind it is cell-based, Insect cells. Conditions: Not Active = under 50% inhibition at 10 µM.
For experiment [5], the target named is T3, Receptor-type tyrosine-protein phosphatase C (Homo sapiens, UniProt P08575).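 Further: inhibition of CD45 enzyme activity measured using DiFMUP as substrate; in other assays of this panel Not Active means under 50% inhibition at 10 µM.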
T3 sequence (P08575 whole entry): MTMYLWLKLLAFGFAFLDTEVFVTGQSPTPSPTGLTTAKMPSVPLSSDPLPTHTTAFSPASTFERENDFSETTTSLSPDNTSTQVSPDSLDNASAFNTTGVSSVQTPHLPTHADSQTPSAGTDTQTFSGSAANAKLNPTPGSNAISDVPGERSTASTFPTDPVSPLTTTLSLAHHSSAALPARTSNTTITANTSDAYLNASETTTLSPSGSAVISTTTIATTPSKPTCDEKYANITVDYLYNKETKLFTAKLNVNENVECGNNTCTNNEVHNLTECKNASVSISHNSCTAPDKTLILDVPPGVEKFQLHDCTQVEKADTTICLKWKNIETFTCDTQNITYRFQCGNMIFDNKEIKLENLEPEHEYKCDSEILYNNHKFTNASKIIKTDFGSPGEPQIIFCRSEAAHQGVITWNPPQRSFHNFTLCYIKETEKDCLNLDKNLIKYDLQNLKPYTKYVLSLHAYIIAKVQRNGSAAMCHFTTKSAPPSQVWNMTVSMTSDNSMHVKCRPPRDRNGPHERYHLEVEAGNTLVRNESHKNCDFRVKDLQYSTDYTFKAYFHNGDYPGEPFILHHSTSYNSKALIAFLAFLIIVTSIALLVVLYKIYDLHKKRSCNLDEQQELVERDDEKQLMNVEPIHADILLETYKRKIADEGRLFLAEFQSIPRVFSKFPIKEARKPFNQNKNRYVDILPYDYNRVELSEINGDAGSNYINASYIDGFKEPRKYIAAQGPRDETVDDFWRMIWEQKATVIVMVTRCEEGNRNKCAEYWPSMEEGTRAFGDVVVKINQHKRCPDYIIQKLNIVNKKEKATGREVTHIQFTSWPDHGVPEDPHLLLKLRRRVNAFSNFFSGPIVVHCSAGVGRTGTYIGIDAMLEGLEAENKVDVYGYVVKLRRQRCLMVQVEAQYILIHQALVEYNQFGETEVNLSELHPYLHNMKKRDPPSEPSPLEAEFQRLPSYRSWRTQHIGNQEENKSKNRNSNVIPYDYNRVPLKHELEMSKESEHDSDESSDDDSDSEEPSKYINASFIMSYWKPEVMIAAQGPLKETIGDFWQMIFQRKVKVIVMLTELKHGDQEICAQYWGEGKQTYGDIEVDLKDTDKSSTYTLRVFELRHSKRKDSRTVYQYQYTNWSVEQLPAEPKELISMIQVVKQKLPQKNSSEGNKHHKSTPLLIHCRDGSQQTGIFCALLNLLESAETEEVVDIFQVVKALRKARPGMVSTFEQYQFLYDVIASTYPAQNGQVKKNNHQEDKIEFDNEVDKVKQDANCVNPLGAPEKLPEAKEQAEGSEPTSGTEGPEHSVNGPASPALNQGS
Details: species or system Escherichia coli.

Each structure is given as a SMILES string.

Sequence of Epidermal growth factor receptor (P00533 whole entry): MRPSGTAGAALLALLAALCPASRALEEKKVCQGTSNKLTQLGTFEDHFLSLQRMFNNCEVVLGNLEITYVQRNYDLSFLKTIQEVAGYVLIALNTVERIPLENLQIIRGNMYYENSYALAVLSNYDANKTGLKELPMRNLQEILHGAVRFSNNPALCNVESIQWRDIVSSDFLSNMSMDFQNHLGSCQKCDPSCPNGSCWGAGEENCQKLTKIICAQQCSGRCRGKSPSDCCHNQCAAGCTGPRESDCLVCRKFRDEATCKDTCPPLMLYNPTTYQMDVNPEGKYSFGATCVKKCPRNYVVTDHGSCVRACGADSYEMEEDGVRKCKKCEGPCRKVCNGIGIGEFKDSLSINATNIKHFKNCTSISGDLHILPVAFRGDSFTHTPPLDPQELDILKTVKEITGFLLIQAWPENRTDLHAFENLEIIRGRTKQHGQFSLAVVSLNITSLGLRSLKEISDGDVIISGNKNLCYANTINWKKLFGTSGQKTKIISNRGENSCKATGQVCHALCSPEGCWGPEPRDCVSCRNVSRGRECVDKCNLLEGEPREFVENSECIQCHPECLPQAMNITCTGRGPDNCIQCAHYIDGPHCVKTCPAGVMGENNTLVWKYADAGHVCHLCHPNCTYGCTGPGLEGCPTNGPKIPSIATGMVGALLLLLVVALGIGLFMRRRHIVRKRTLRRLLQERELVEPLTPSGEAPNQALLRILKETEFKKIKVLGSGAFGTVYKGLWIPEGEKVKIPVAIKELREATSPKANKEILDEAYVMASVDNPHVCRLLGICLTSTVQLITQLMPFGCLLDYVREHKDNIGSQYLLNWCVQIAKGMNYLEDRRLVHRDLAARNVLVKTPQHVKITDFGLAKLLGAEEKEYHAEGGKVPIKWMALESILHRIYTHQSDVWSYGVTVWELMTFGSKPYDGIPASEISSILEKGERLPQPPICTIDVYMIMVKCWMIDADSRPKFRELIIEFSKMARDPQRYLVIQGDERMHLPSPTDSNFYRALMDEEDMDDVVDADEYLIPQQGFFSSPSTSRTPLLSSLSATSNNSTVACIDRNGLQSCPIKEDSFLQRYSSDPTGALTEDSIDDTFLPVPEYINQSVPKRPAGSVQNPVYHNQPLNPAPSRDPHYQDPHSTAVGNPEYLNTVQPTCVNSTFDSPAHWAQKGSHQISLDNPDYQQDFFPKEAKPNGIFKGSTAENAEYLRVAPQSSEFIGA
Sequence of Platelet-activating factor receptor (P25105 whole entry): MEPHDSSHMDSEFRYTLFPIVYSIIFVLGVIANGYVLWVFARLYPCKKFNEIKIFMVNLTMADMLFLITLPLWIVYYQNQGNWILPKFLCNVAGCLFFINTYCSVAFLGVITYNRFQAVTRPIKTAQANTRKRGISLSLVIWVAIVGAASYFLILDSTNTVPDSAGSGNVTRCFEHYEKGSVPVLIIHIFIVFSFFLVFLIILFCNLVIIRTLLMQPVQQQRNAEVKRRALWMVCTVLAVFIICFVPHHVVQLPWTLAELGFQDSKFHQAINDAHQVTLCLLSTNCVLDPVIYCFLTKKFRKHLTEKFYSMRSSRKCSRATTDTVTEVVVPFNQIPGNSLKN

In the case of `CC(C)C(Br)C(=O)NC(N)=O` (stereo unspecified) [BROMISOVALUM], the IC50 result in experiment [1] (sf9), in experiment [2], in experiment [3], in experiment [4] (insect cells) and in experiment [5] was “Not Active” in each case.
As to `CCC(C)n1ncn(-c2ccc(N3CCN(c4ccc(OCC5COC(Cn6cncn6)(c6ccc(Cl)cc6Cl)O5)cc4)CC3)cc2)c1=O` (stereo unspecified) [ITRACONAZOLE], the IC50 entry in experiment [1] (sf9), in experiment [2], in experiment [3], in experiment [4] (insect cells) and in experiment [5] was “Not Active” in each case.
In the case of `Nc1c(Br)cc(Br)cc1CN[C@H]1CC[C@H](O)CC1` [AMBROXOL], the IC50 result in experiment [1] (sf9), in experiment [2], in experiment [3], in experiment [4] (insect cells) and in experiment [5] was “Not Active” in each case.
As for `CC(C)(C)NCC(O)c1cc(Cl)c(N)c(Cl)c1` (stereo unspecified) [CLENBUTEROL], the IC50 result in experiment [1] (sf9), in experiment [2], in experiment [3], in experiment [4] (insect cells) and in experiment [5] was “Not Active” in each case.
With `C[C@](N)(Cc1ccc(O)c(O)c1)C(=O)O` [METHYLDOPA], the IC50 result in experiment [1] (sf9) was “Not Active”; in experiment [2], “Not Active”; in experiment [3], “Not Active”; in experiment [4] (read-out: IC50), 5.23 µM; in experiment [5], “Not Active”.
`Cc1ccccc1N1C(=O)c2cc(S(N)(=O)=O)c(Cl)cc2NC1C` (stereo unspecified) [METOLAZONE]: the IC50 entry in experiment [1] (sf9), in experiment [2], in experiment [3], in experiment [4] (insect cells) and in experiment [5] was “Not Active” each time.
On to `Nc1nc2c(ncn2CCC(CO)CO)c(=O)[nH]1` [PENCICLOVIR], for which the IC50 entry in experiment [1] (sf9), in experiment [2], in experiment [3], in experiment [4] (insect cells) and in experiment [5] was “Not Active” in each case.
As for `CCOc1ccc(NC(C)=O)cc1` [PHENACETIN], the IC50 entry in experiment [1] (sf9), in experiment [2], in experiment [3], in experiment [4] (insect cells) and in experiment [5] was “Not Active” each time.
`Cc1cc(C(C#N)c2ccc(Cl)cc2)c(Cl)cc1NC(=O)c1cc(I)cc(I)c1O` (stereo unspecified) [CLOSANTEL]: the IC50 in experiment [1] (read-out: IC50) was 7.1 µM; in experiment [2] it was “Not Active”; in experiment [3], “Not Active”; in experiment [4] (read-out: IC50) it was 0.564 µM; in experiment [5], “Not Active”. Besides, the Ki in experiment [1] (read-out: Ki) was found to be 1 µM.
In the case of `C[C@]12CC[C@@H]3c4ccc(O)cc4CC[C@H]3[C@@H]1CCC2=O` [ESTRONE], the IC50 result in experiment [1] (sf9), in experiment [2], in experiment [3], in experiment [4] (insect cells) and in experiment [5] was “Not Active” throughout.
Regarding `NC1=NC(=O)C(c2ccccc2)O1` (stereo unspecified) [PEMOLINE], the IC50 result in experiment [1] (sf9), in experiment [2], in experiment [3], in experiment [4] (insect cells) and in experiment [5] was “Not Active” throughout.
On to `CN(C)C(=O)Oc1cc(OC(=O)N(C)C)cc(C(O)CNC(C)(C)C)c1` (stereo unspecified) [BAMBUTEROL], for which the IC50 result in experiment [1] (sf9), in experiment [2], in experiment [3], in experiment [4] (insect cells) and in experiment [5] was “Not Active” in each case.
In the case of `C[C@H]1c2cccc(O)c2C(=O)C2=C(O)[C@]3(O)C(=O)C(C(N)=O)=C(O)[C@@H](N(C)C)[C@@H]3[C@@H](O)[C@@H]21.O` [DOXYCYCLINE], the 50% inhibitory concentration (IC50) entry in experiment [1] (sf9), in experiment [2], in experiment [3], in experiment [4] (insect cells) and in experiment [5] was “Not Active” throughout.
With `CC1(C)S[C@@H]2[C@H](NC(=O)Cc3ccccc3)C(=O)N2[C@H]1C(=O)O` [PENICILLIN G], the IC50 entry in experiment [1] (sf9), in experiment [2], in experiment [3], in experiment [4] (insect cells) and in experiment [5] was “Not Active” throughout.
In the case of `C[C@H]1O[C@@H](O[C@H]2[C@@H](O)C[C@H](O[C@H]3[C@@H](O)C[C@H](O[C@H]4CC[C@@]5(C)[C@H](CC[C@@H]6[C@@H]5C[C@@H](O)[C@]5(C)[C@@H](C7=CC(=O)OC7)CC[C@]65O)C4)O[C@@H]3C)O[C@@H]2C)C[C@H](O)[C@@H]1O` [DIGOXIN], the concentration for half-maximal inhibition (IC50) result in experiment [1] (sf9), in experiment [2], in experiment [3], in experiment [4] (insect cells) and in experiment [5] was “Not Active” each time.
Turning to `c1ccc2c(c1)c1cccc3ccc4cccc2c4c31` [BENZO[E]PYRENE], the IC50 entry in experiment [1] (sf9), in experiment [2], in experiment [3], in experiment [4] (insect cells) and in experiment [5] was “Not Active” each time.
Turning to `Sc1ncnc2nc[nH]c12` [MERCAPTOPURINE ANHYDROUS], the IC50 result in experiment [1] (sf9), in experiment [2], in experiment [3], in experiment [4] (insect cells) and in experiment [5] was “Not Active” in each case.
In the case of `O=c1oc2ccccc2c(O)c1Cc1c(O)c2ccccc2oc1=O` [DICUMAROL], the IC50 entry in experiment [1] (sf9), in experiment [2], in experiment [3], in experiment [4] (insect cells) and in experiment [5] was “Not Active” throughout.
On to `Nc1nc(N)nc(-c2cc(Cl)ccc2Cl)n1.O=C(O)/C=C\C(=O)O` [IRSOGLADINE MALEATE], for which the IC50 result in experiment [1] (sf9), in experiment [2], in experiment [3], in experiment [4] (insect cells) and in experiment [5] was “Not Active” each time.
For `CC1(C)O[C@@H]2C[C@H]3[C@@H]4CCC5=CC(=O)CC[C@]5(C)[C@@]4(F)[C@@H](O)C[C@]3(C)[C@]2(C(=O)CCl)O1` [HALCINONIDE], the IC50 entry in experiment [1] (sf9), in experiment [2], in experiment [3], in experiment [4] (insect cells) and in experiment [5] was “Not Active” each time.
`O=c1[nH]c(=O)n([C@H]2C[C@H](O)[C@@H](CO)O2)cc1I` [IDOXURIDINE]: the IC50 entry in experiment [1] (sf9), in experiment [2], in experiment [3], in experiment [4] (insect cells) and in experiment [5] was “Not Active” in each case.
